Here are results for 39 molecules from US7795278B2 (sanofi-aventis Deutschland GmbH, priority 2004, dated 2010).

pIC50: −log10 of the molar value.

By pIC50 is commonly meant −log10 of the IC50, conventionally taken in molar units.

recombinantly expressed human PARP-1 enzyme, sequence (P09874 whole entry): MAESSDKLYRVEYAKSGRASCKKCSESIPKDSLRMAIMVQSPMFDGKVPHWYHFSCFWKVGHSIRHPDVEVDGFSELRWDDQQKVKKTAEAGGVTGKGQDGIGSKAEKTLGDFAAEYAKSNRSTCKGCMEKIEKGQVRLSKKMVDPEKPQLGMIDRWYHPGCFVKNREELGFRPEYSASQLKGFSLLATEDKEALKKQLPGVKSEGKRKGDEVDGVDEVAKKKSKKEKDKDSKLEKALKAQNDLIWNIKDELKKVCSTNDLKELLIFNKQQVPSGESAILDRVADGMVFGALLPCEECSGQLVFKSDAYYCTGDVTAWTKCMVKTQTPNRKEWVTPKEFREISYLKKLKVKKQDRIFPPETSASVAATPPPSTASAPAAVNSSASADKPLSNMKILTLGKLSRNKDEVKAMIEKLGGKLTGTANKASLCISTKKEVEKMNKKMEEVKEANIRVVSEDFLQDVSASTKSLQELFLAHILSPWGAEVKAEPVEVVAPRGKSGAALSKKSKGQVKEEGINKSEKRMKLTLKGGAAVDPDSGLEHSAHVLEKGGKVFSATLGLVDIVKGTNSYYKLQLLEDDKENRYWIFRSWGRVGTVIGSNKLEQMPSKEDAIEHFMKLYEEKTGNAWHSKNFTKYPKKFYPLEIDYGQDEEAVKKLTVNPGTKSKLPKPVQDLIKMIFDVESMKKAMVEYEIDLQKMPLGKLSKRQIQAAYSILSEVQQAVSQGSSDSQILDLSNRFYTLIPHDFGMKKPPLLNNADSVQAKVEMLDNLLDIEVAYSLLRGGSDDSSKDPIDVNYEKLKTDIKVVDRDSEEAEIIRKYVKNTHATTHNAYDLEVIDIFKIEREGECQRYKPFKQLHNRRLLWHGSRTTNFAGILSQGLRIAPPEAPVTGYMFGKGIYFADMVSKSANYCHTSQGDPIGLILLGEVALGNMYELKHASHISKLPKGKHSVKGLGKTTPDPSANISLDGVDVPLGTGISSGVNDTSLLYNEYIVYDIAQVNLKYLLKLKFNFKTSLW

This test concerns the target recombinantly expressed human PARP-1 enzyme (Homo sapiens, UniProt P09874). Description: PARP enzyme assay (half-maximum inhibitor concentration). The class given is biochemical. To be noted: DNA-activated PARP-1, 200 μM NAD, tritium-labeled NAD incorporation, room temperature, 1 hour, pH 8.0. The method, then: Pharmacological Investigations PARP Enzyme Assay
The half-maximum inhibitor concentration is determined by incubating the substances to be tested with the DNA-activated, recombinantly expressed and purified PARP-1 enzyme. Specifically, various concentrations of the test substance are incubated in 50 μl of reaction solution, which contains 50 mM Tris, 5 mM MgCl2, 1 mM DTT, 200 μM NAD, 0.1 mCi/ml tritium-labeled NAD, 0.1 mg/ml DNA, 0.1 mg/ml histones, 2 μg/ml recombinantly expressed human PARP-1 enzyme, pH=8.0, at room temperature for 1 hour. The reaction is stopped by adding 150 μl of 20% trichloroacetic acid, and the radiolabeled protein constituents are precipitated. After incubation on ice for 10 minutes, the labeled, insoluble constituents are separated off through a glass fiber filter and, after washing with 20% trichloroacetic acid three times, the radioactivity incorporated by the PARP-1 enzyme is measured by radioluminescence.
IC-50 values were determined in this way for the following compounds: […]
Turning to “4-(6-morpholin-4-ylpyridin-3-yl-amino)-5,6,7,8-tetrahydro-2H-isoquinolin-1-one [Example 4]”, the pIC50 is 5.20.

Consider “4-[5-({[4-(4-fluorophenyl)-piperazin-1-yl]-5,6,7,8-tetrahydro-2H-isoquinolin-1-one [Example 71]”, for which the pIC50 was 5.91.

As to `O=c1[nH]cc(Nc2cccc(O)c2)c2c1CCCC2` [Example 1, 4-(3-hydroxyphenylamino)-5,6,7,8-tetrahydro-2H-isoquinolin-1-one], the pIC50 is 5.88.

As to `CNC(=O)c1cccc(Nc2c[nH]c(=O)c3c2CCCC3)c1` [Example 2, N-methyl-3-(1-oxo-1,2,5,6,7,8-hexahydroisoquinolin-4-ylamino)-benzamide], the pIC50 is 6.57.

As to `O=c1[nH]cc(Nc2nc(-c3ccncc3)cs2)c2c1CCCC2` [Example 3, 4-(4-pyridin-4-ylthiazol-2-ylamino)-5,6,7,8-tetrahydro-2H-isoquinolin-1-one], the pIC50 was 5.01.

As for `CC(=O)Nc1cccc(Nc2c[nH]c(=O)c3c2CCCC3)c1` [Example 5, N-[3-(1-oxo-1,2,5,6,7,8-hexahydroisoquinolin-4-ylamino)-phenyl]acetamide], the pIC50 was 6.41.

Consider `CS(=O)(=O)c1cccc(Nc2c[nH]c(=O)c3c2CCCC3)c1` [Example 6, 4-(3-methanesulfonylphenyl-amino)-5,6,7,8-tetrahydro-2H-isoquinolin-1-one], for which the pIC50 was 6.10.

Turning to `Cc1[nH]c(=O)c2c(c1Nc1cccc(S(C)(=O)=O)c1)CCCC2` [Example 7, 4-(3-methanesulfonylphenyl-amino)-3-methyl-5,6,7,8-tetrahydro-2H-isoquinolin-1-one], the pIC50 is 6.52.

With `O=c1[nH]cc(Nc2cccc(CO)c2)c2c1CCCC2` [Example 8, 4-(3-hydroxymethylphenyl-amino)-5,6,7,8-tetrahydro-2H-isoquinolin-1-one], the pIC50 was 6.21.

As to `O=C1OCc2ccc(Nc3c[nH]c(=O)c4c3CCCC4)cc21` [Example 10], the pIC50 was 5.84.

For `CCOc1cccc(Nc2c[nH]c(=O)c3c2CCCC3)c1` [Example 11, 4-(3-ethoxyphenylamino)-5,6,7,8-tetrahydro-2H-isoquinolin-1-one], the pIC50 was 6.41.

Turning to `O=c1[nH]cc(Nc2ccc(Cl)nc2)c2c1CCCC2` [Example 12, 4-(6-chloropyridin-3-ylamino)-5,6,7,8-tetrahydro-2H-isoquinolin-1-one], the pIC50 is 6.17.

With `Cc1[nH]c(=O)c2c(c1Nc1cccc(C(=O)N(C)C)c1)CCCC2` [Example 13, N,N-dimethyl-3-(3-methyl-1-oxo-1,2,5,6,7,8-hexahydroisoquinolin-4-ylamino)benzamide], the pIC50 was 7.10.

As for `Cc1[nH]c(=O)c2c(c1Nc1cccc(OC(F)(F)F)c1)CCCC2` [Example 14, 3-methyl-4-(3-trifluoromethoxy-phenylamino)-5,6,7,8-tetrahydro-2H-isoquinolin-1-one], the pIC50 is 5.92.

For the molecule `CC(=O)c1cccc(Nc2c[nH]c(=O)c3c2CCCC3)c1` [Example 15, 4-(3-acetylphenylamino)-5,6,7,8-tetrahydro-2H-isoquinolin-1-one], the pIC50 is 6.16.

Regarding `CC(=O)Nc1cccc(Nc2c(C)[nH]c(=O)c3c2CCCC3)c1` [Example 17, N-[3-(3-methyl-1-oxo-1,2,5,6,7,8-hexahydroisoquinolin-4-ylamino)-phenyl]acetamide], the pIC50 was 6.85.

In the case of `Cc1[nH]c(=O)c2c(c1-c1cccs1)CCCC2` [Example 18, 3-methyl-4-thiophen-2-yl-5,6,7,8-tetrahydro-2H-isoquinolin-1-one], the pIC50 is 6.42.

In the case of `Cc1[nH]c(=O)c2c(c1-c1cccnc1)CCCC2` [Example 19, 3-methyl-4-pyridin-3-yl-5,6,7,8-tetrahydro-2H-isoquinolin-1-one], the pIC50 is 6.13.

In the case of `CCCCNC(=O)c1cccc(Nc2c[nH]c(=O)c3c2CCCC3)c1` [Example 20, N-Butyl-3-(1-oxo-1,2,5,6,7,8-hexahydroisoquinolin-4-ylamino)benzamide], the pIC50 is 5.89.

As to `O=C(c1cccc(Nc2c[nH]c(=O)c3c2CCCC3)c1)N1CCCC1` [Example 21, 4-[3-(Pyrrolidin-1-carbonyl)phenylamino]-5,6,7,8-tetrahydro-2H-isoquinolin-1-one], the negative-log IC50 (pIC50) is 4.98.

On to `O=C(c1cccc(Nc2c[nH]c(=O)c3c2CCCC3)c1)N1CCN(CC2CC2)CC1` [Example 22, 4-[3-(4-Cyclopropylmethylpiperazine-1-carbonyl)phenylamino]-5,6,7,8-tetrahydro-2H-isoquinolin-1-one], for which the pIC50 was 6.48.

For the molecule `O=C(NCCc1cccnc1)c1cccc(Nc2c[nH]c(=O)c3c2CCCC3)c1` [Example 23, 3-(1-Oxo-1,2,5,6,7,8-hexahydroisoquinolin-4-ylamino)-N-(2-pyridin-3-ylethyl)benzamide], the pIC50 is 5.70.

For `O=C(c1cncc(-c2c[nH]c(=O)c3c2CCCC3)c1)N1CCCC1` [Example 25, 4-[5-(pyrrolidine-1-carbonyl)-pyridin-3-yl]-5,6,7,8-tetrahydro-2H-isoquinolin-1-one], the pIC50 was 5.11.

As to `O=C(CNC(=O)c1cncc(-c2c[nH]c(=O)c3c2CCCC3)c1)c1ccccc1` [Example 26, 5-(1-oxo-1,2,5,6,7,8-hexahydroisoquinolin-4-yl)-N-(2-oxo-2-phenylethyl)nicotinamide], the pIC50 is 5.83.

In the case of `O=C(NCCc1ccccc1)c1cncc(-c2c[nH]c(=O)c3c2CCCC3)c1` [Example 27, 5-(1-oxo-1,2,5,6,7,8-hexahydroisoquinolin-4-yl)-N-phenethyl-nicotinamide], the pIC50 was 5.60.

Regarding `O=C(NCc1ccc([N+](=O)[O-])cc1)c1cncc(-c2c[nH]c(=O)c3c2CCCC3)c1` [Example 28, N-(4-nitrobenzyl)-5-(1-oxo-1,2,5,6,7,8-hexahydroisoquinolin-4-yl)nicotinamide], the pIC50 was 6.40.

For `CN(Cc1cccc([N+](=O)[O-])c1)C(=O)c1cncc(-c2c[nH]c(=O)c3c2CCCC3)c1` [Example 32, N-methyl-N-(3-nitrobenzyl)-5-(1-oxo-1,2,5,6,7,8-hexahydroisoquinolin-4-yl)nicotinamide], the pIC50 is 6.11.

Consider `O=C(NCCNc1ncccn1)c1cncc(-c2c[nH]c(=O)c3c2CCCC3)c1` [Example 33, 5-(1-oxo-1,2,5,6,7,8-hexahydroisoquinolin-4-yl)-N-[2-(pyrimidin-2-ylamino)ethyl]nicotinamide], for which the pIC50 is 5.43.

As for `Cc1cc(CNC(=O)c2cncc(-c3c[nH]c(=O)c4c3CCCC4)c2)no1` [Example 34, N-(5-methylisoxazol-3-ylmethyl)-5-(1-oxo-1,2,5,6,7,8-hexahydroisoquinolin-4-yl)nicotinamide], the pIC50 is 5.46.

On to `Cc1nn(C)c(C)c1CNC(=O)c1cncc(-c2c[nH]c(=O)c3c2CCCC3)c1` [Example 35, 5-(1-oxo-1,2,5,6,7,8-hexahydroisoquinolin-4-yl)-N-(1,3,5-trimethyl-1H-pyrazol-4-ylmethyl)-nicotinamide], for which the negative logarithm of the IC50 (pIC50) was 5.16.

Consider `O=C(c1cncc(-c2c[nH]c(=O)c3c2CCCC3)c1)N1CCC(c2ccncc2)C1` (stereo not drawn) [Example 36, 4-[5-(3-pyridin-4-ylpyrrolidine-1-carbonyl)pyridin-3-yl]-5,6,7,8-tetrahydro-2H-isoquinolin-1-one], for which the negative logarithm of the IC50 (pIC50) is 6.38.

As to `CC(=O)Nc1ccc(CNC(=O)c2cncc(-c3c[nH]c(=O)c4c3CCCC4)c2)cc1` [Example 37, N-(4-acetylaminobenzyl)-5-(1-oxo-1,2,5,6,7,8-hexahydroisoquinolin-4-yl)nicotinamide], the pIC50 is 5.39.

For `CN(Cc1ccncc1)C(=O)c1cncc(-c2c[nH]c(=O)c3c2CCCC3)c1` [Example 38, N-methyl-5-(1-oxo-1,2,5,6,7,8-hexahydroisoquinolin-4-yl)-N-pyridin-4-ylmethylnicotinamide], the pIC50 was 5.50.

For the molecule `Cc1cnc(CNC(=O)c2cncc(-c3c[nH]c(=O)c4c3CCCC4)c2)cn1` [Example 39, N-(5-methylpyrazin-2-ylmethyl)-5-(1-oxo-1,2,5,6,7,8-hexahydroisoquinolin-4-yl)nicotinamide], the pIC50 was 5.23.

For the molecule `O=C(NCCc1cccnc1)c1cncc(-c2c[nH]c(=O)c3c2CCCC3)c1` [Example 40, 5-(1-oxo-1,2,5,6,7,8-hexahydroisoquinolin-4-yl)-N-(2-pyridin-3-ylethyl)nicotinamide], the pIC50 was 5.33.

In the case of `O=C(NCC1CC(c2ccccc2)=NO1)c1cncc(-c2c[nH]c(=O)c3c2CCCC3)c1` (stereo not drawn) [Example 41, 5-(1-oxo-1,2,5,6,7,8-hexahydroisoquinolin-4-yl)-N-(3-phenyl-4,5-dihydroisoxazol-5-ylmethyl)-nicotinamide], the negative-log IC50 (pIC50) was 5.41.

Consider `CS(=O)(=O)c1ccc(CNC(=O)c2cncc(-c3c[nH]c(=O)c4c3CCCC4)c2)cc1` [Example 42, N-(4-methanesulfonylbenzyl)-5-(1-oxo-1,2,5,6,7,8-hexahydroisoquinolin-4-yl)nicotinamide], for which the pIC50 was 5.99.

For `O=C(NCCc1ccncc1)c1cncc(-c2c[nH]c(=O)c3c2CCCC3)c1` [Example 43, 5-(1-oxo-1,2,5,6,7,8-hexahydroisoquinolin-4-yl)-N-(2-pyridin-4-ylethyl)nicotinamide], the pIC50 is 6.09.

With `NS(=O)(=O)c1ccc(CCNC(=O)c2cncc(-c3c[nH]c(=O)c4c3CCCC4)c2)cc1` [Example 44, 5-(1-oxo-1,2,5,6,7,8-hexahydroisoquinolin-4-yl)-N-[2-(4-sulf-amoylphenyl)ethyl]nicotinamide], the pIC50 is 5.08.
